In PMC11189301, “Structure of the human outer kinetochore KMN network complex” (Nature Structural & Molecular Biology, 2024):
Blank lines part the entries; values can stand above or below the molecule they belong to.

Columns and labels:
[1] = system: MIS12^Dsn1-W96A R97A R98A; assay: Analytical SEC, CENP-C^1–71 binding to MIS12C with WRR linchpin substitutions; design: species or system Homo sapiens; details: 4 µM CENP-C^1–71-MBP + 4 µM MIS12^Dsn1-W96A R97A R98A; 20 mM HEPES pH 7.8, 150 mM NaCl, 0.5 mM TCEP; Superdex S200; SDS-PAGE; at least two repeats
Protocol: (§1) Four micromolar of CENP-C^1–71-MBP was mixed with 4 µM of either wild-type MIS12C or three mutants (MIS12C^ΔN-Dsn1, MIS12^Dsn1-W96A R97A R98A, MIS12C^Dsn1-S100D S109D) in a buffer of 20 mM HEPES (pH 7.8), 150 mM NaCl and 0.5 mM TCEP, and 50 µl of the mixture was loaded onto a Superdex S200 size-exclusion column (Cytiva).
(§2) Coloured by pLDDT score. e AlphaFold2 Multimer prediction of the K. lactis MIS12C coloured by subunit with insert highlighting conservation of the auto-inhibitory Dsn1^N mechanism. Source data

Wild-type MIS12C = assay: Analytical size-exclusion chromatography (SEC), CENP-C^1–71 binding to wild-type MIS12C; design: species or system Homo sapiens; details: 4 µM CENP-C^1–71-MBP + 4 µM wild-type MIS12C; 20 mM HEPES pH 7.8, 150 mM NaCl, 0.5 mM TCEP; Superdex S200; SDS-PAGE; at least two repeats
Protocol: as §1, §2

MIS12 complex = system: MIS12 complex; design: method as in PMID 24530301; details: compared with Nsl1 C-terminal peptide (residues 258–281); cited from earlier work
Knl1 = assay: SEC assessment of MIS12C^Nsl1ΔC binding to Knl1; design: species or system Homo sapiens; details: MIS12C^Nsl1ΔC (Nsl1 residues 265–281 deleted) + KNL1 at 4 µM each; 20 mM HEPES pH 7.8, 150 mM NaCl, 0.5 mM TCEP; Superose 6; at least two repeats
Protocol: Assessment of substitutions in the MIS12C–KNL1 interfaces
To test the effect of substitutions in the MIS12C–KNL1 interfaces, either wild-type MIS12C or MIS12C^Nsl1ΔC was mixed with either wild-type KNL1 or two mutants (KNL1^R2248D […] (KNL1^mut1), KNL1^S2270R S2272W (KNL1^mut2)) at 4 µM each in a buffer of 20 mM HEPES (pH 7.8), 150 mM NaCl and 0.5 mM TCEP, and 50 µl was loaded onto a Superose 6 size-exclusion column (Cytiva).
Extended Data Fig. 9 Biochemical validation of the MIS12C:Knl1 interface. a Coomassie blue-stained SDS-PAGE gels of the MIS12C:Knl1 interaction reconstitutions. MIS12C (WT) and MIS12C with Nsl1 truncated at the C-terminus (1–264 Nsl1 construct, MIS12C^Nsl1ΔC) were tested in their ability to bind either wild-type RWD domains of Knl1 (2131–2337 construct, labelled Knl1 for simplicity) or Knl1 mutants (R2248D/W2249S substitutions, Knl1^mut1, and S2270R/S2272W substitutions, Knl1^mut2, as well as S2270R/S2272W/R2248A/W2249S substitutions, Knl1^mut3). The binding experiments were repeated at least two independent times with identical results. The gels are aligned according to the fraction number of the protein sample eluted from the size exclusion column. b SEC elution chromatograms of all of the experiments described in (a). Source data

- CENP-C^1–71 binding by SEC, in words [1]: binding of almost all CENP-C
- CENP-C^1–71 binding by SEC, in words (Wild-type MIS12C): only partially bound
Molecule: CENP-C^1–71: CENP-C residues 1–71 fused to a C-terminal maltose-binding protein (MBP) tag, expressed in E. coli

Molecule: Knl1: outer kinetochore protein Knl1; prior affinity data of ref 11
- affinity of Knl1 for the whole MIS12 complex, in words (MIS12 complex): only slightly higher than its affinity for a peptide modeled on the C terminus of Nsl1 alone (residues 258–281)

B1: MIS12C^Nsl1ΔC: MIS12C with Nsl1 truncated at the C-terminus (1–264 Nsl1 construct; residues 265–281 deleted) (protein)
chain 1: MSVDPMTYEAQFFGFTPQTCMLRIYIAFQDYLFEVMQAVEQVILKKLDGIPDCDISPVQIRKCTEKFLCFMKGHFDNLFSKMEQLFLQLILRIPSNILLPEDKCKETPYSEEDFQHLQKEIEQLQEKYKTELCTKQALLAELEEQKIVQAKLKQTLTFFDELHNVGRDHGTSDFRESLVSLVQNSRKLQNIRDNVEKESKRLKIS
chain 2: MAEASSANLGSGCEEKRHEGSSSESVPPGTTISRVKLLDTMVDTFLQKLVAAGSYQRFTDCYKCFYQLQPAMTQQIYDKFIAQLQTSIREEISDIKEEGNLEAVLNALDKIVEEGKVRKEPAWRPSGIPEKDLHSVMAPYFLQQRDTLRRHVQKQEAENQQLADAVLAGRRQVEELQLQVQAQQQAWQALHREQRELVAVLREPE
chain 3: MTSVTRSEIIDEKGPVMSKTHDHQLESSLSPVEVFAKTSASLEMNQGVSEERIHLGSSPKKGGNCDLSHQERLQSKSLHLSPQEQSASYQDRRQSWRRASMKETNRRKSLHPIHQGITELSRSISVDLAESKRLGCLLLSSFQFSIQKLEPFLRDTKGFSLESFRAKASSLSEELKHFADGLETDGTLQKCFEDSNGKASDFSLEASVAEMKEYITKFSLERQTWDQLLLHYQQEAKEILSRGSTEAKITEVKVEPMTYLGSSQNEVLNTKPDYQKILQNQSKVFDCMELVMDELQGSVKQLQAFMDESTQCFQKVSVQLGKRSMQQLDPSPARKLLKLQLQNPPAIHGSGSGSCQ
chain 4: MAGSPELVVLDPPWDKELAAGTESQALVSATPREDFRVRCTSKRAVTEMLQLCGRFVQKLGDALPEEIREPALRDAQWTFESAVQENISINGQAWQEASDNCFMDSDIKVLEDQFDEIIVDIATKRKQYPRKILECVIKTIKAKQEILKQYHPVVHPLDLKYDPDPAPHMENLKCRGETVAKEISEAMKSLPALIEQGEGFSQVLRMQPVIHLQRIHQEVFSSCHRKPDAKPENFITQIETTPTETASRKTSDMVLKRKQTKDC
modifications: left off: double strep II (DS), C-terminal, state not stated
- MIS12C–Knl1 interaction by SEC, in words (Knl1): reduced the interaction strength between Knl1 and MIS12C
